The record followed here is patent publication US7323485B2, “4-(substituted cycloalkylmethyl) imidazole-2-thiones, 4-(substituted cycloalkenylmethyl) imidazole-2-thiones, 4-(substituted cycloalkylmethyl) imidazol-2-ones and 4-(substituted cycloalkenylmethyl) imidazol-2-ones and related compounds” (Allergan, Inc., priority 2002, dated 2008).

Structures are written as SMILES. Like-named read-outs stand apart in the source and are kept apart here.

For data set [1], the system named is rats with ligated L5 and L6 spinal nerves. As to the kind of experiment: Chung model of neuropathic pain (tactile allodynia, von Frey hairs). Particulars: Rattus norvegicus, 0.5 h, 30 min following drug administration, read-out: % Pain Reversal ± SEM; for inhibition in vivo at 0.01 mg/kg: 10 μg/kg i.p. The data set is classed as in vivo. From the text:
A model in accordance with Kim and Chung 1992, Pain […], pp 355-363 (Chung model), for chronic pain (in particular peripheral neuropathy) involves the surgical ligation of the L5 (and optionally the L6) spinal nerves on one side in experimental animals. Rats recovering from the surgery gain weight and display a level of general activity similar to that of normal rats. However, these rats develop abnormalities of the foot, wherein the hindpaw is moderately everted and the toes are held together. More importantly, the hindpaw on the side affected by the surgery appears to become sensitive to pain from low-threshold mechanical stimuli, such as that producing a faint sensation of touch in a human, within about 1 week following surgery. This sensitivity to normally non-painful touch is called “tactile allodynia” and lasts for at least two months. The response includes lifting the affected hindpaw to escape from the stimulus, licking the paw and holding it in the air for many seconds. None of these responses is normally seen in the control group.
Rats are anesthetized before surgery. The surgical site is shaved and prepared either with betadine or Novacaine. Incision is made from the thoracic vertebra Xlll down toward the sacrum. Muscle tissue is separated from the spinal vertebra (left side) at the L4-S2 levels. The L6 vertebra is located and the transverse process is carefully removed with a small rongeur to expose the L4-L6 spinal nerves. The L5 and L6 spinal nerves are isolated and tightly ligated with 6-0 silk thread. The same procedure is done on the right side as a control, except no ligation of the spinal nerves is performed.
A complete hemostasis is confirmed, then the wounds are sutured. A small amount of antibiotic ointment is applied to the incised area, and the rat is transferred to the recovery plastic cage under a regulated heat-temperature lamp. On the day of the experiment, at least seven days after the surgery, typically six rats per test group are administered the test drugs by intraperitoneal (i.p.) injection or oral gavage. For i.p. injection, the compounds are formulated in approximately 10 to 50% DMSO and given in a volume of 1 ml/kg body weight.
Tactile allodynia is measured prior to and 30 minutes after drug administration using von Frey hairs that are a series of fine hairs with incremental differences in stiffness. Rats are placed in a plastic cage with a wire mesh bottom and allowed to acclimate for approximately 30 minutes. The von Frey hairs are applied perpendicularly through the mesh to the mid-plantar region of the rats' hindpaw with sufficient force to cause slight buckling and held for 6-8 seconds. The applied force has been calculated to range from 0.41 to 15.1 grams. If the paw is sharply withdrawn, it is considered a positive response. A normal animal will not respond to stimuli in this range, but a surgically ligated paw will be withdrawn in response to a 1-2 gram hair. The 50% paw withdrawal threshold is determined using the method of Dixon, W. J., Ann. Rev. Pharmacol. Toxicol. 20:441-462 (1980). The post-drug threshold is compared to the pre-drug threshold and the percent reversal of tactile sensitivity is calculated based on a normal threshold of 15.1 grams. The results are expressed in percent (%) MPE, where the MPE value reflects the percentage reversal of pain threshold to that of a normal animal (100%). Table 3 below indicates results of this test with Compounds 1, 7 and 29 of the invention, administered i.p. and in oral doses.

In another data set the test system is male Sprague-Dawley rats. Briefly: Sedative activity (exploratory behavior). The data set is classed as in vivo, rat. Particulars: intraperitoneally, up to a dose of 1 mg/kg. The procedure: To test sedation, six male Sprague-Dawley rats are given up to 3 mg/kg of the test compound in a saline or DMSO vehicle by intraperitoneal injection (i.p.). Sedation is graded 30 minutes following administration of the drug by monitoring locomotor skills as follows.
The Sprague-Dawley rats are weighed and 1 ml/kg body weight of an appropriate concentration (ie. 3 mg/ml for a final dose of 3 mg/kg) drug solution is injected intraperitoneally. Typically the test compound is formulated in approximately 10 to 50% DMSO. The results are compared to controls that are injected with 1 ml/kg saline or 10 to 50% DMSO. Rat activity is then determined 30 minutes after injection of the drug solution. Rats are placed in a dark covered chamber and a digicom analyzer (Omnitech Electronic) quantitates their exploratory behavior for a five-minute period. The machine records each time the rat interrupts an array of 32 photoelectric beams in the X and Y orientation.

Regarding `S=c1[nH]cc(CC2CC=CC2)[nH]1` [Compound 18, 4-cyclopent-3-enylmethyl-1,3-dihydro-imidazole-2-thione], in data set [1] (ip), the inhibition in vivo at 0.01 mg/kg came to 5 ± 2.5%. Besides, the inhibition in vivo at 0.03 mg/kg was 35 ± 5.2% in data set [1] (ip, 30 μg/kg i.p.) and 1 ± 2% in data set [1] (po, 30 μg/kg p.o.). Further, the inhibition in vivo at 0.1 mg/kg came out at 72 ± 6.6% in data set [1] (ip, 100 μg/kg i.p.) and 68 ± 4.4% in data set [1] (po, 100 μg/kg p.o.). Moreover, the inhibition in vivo at 0.3 mg/kg in data set [1] (ip, 300 μg/kg i.p.) stood at 71 ± 6.4%; in data set [1] (po, 300 μg/kg p.o.) it was 82 ± 5.9%. Besides, in data set [1] (po, 1000 μg/kg p.o.), the inhibition in vivo at 1 mg/kg came to 82 ± 8.1%. Also, the sedative effect entry in the data set with male Sprague-Dawley rats is reported as “no sedative effect”.
Consider `O=c1[nH]cc(CC2CCc3cc(F)ccc32)[nH]1` (stereo not drawn) [Compound 49, 4-(5-fluoro-indan-1-ylmethyl)-1,3-dihydro-imidazol-2-one], for which the inhibition in vivo at 0.001 mg/kg in data set [1] (ip, 1 μg/kg i.p.) was 2.3 ± 1.3%. Moreover, the inhibition in vivo at 0.003 mg/kg in data set [1] (ip, 3 μg/kg i.p.) was 23 ± 3.8%. The inhibition in vivo at 0.01 mg/kg in data set [1] (ip) was found to be 39 ± 7.7%. For the same molecule, the inhibition in vivo at 0.03 mg/kg came to 72 ± 8.2% in data set [1] (ip, 30 μg/kg i.p.) and 43 ± 7.1% in data set [1] (po, 30 μg/kg p.o.). Besides, the inhibition in vivo at 0.1 mg/kg in data set [1] (ip, 100 μg/kg i.p.) was 80 ± 6.5%; in data set [1] (po, 100 μg/kg p.o.), 68 ± 4.8%. For the same molecule, the inhibition in vivo at 0.3 mg/kg in data set [1] (po, 300 μg/kg p.o.) was 74 ± 6.8%. In addition, the sedative effect entry in the data set on male Sprague-Dawley rats is “no sedative effect”.
